Laboratory results reported in patent US20240075050A1, “Methods and Compositions for Treating Leucine Rich Repeat Kinase 2 (LRRK2)-Associated Disorder or Condition” (University of Connecticut, priority 2022, published 2024).

Experiments:
[1] = system: LRRK2; assay: Overexpressed LRRK2 levels in HEK 293T cells, Western blot; format: cell-based, human
Method: (§1) FIGS. 2A-2T depicts that AICAr, the precursor of ATIC substrate, regulates LRRK2 expression levels and neuronal toxicity. FIGS. 2A and 2B depict the overexpressed LRRK2 levels in HEK 293T cells upon AICAr treatment. HEK293 cells were transfected with MYC-LRRK2 and treated with or without 1 mM AICAr for 48 hours. LRRK2 levels were analyzed by Western blot. FIGS. 2C and 2D depict the LRRK2 expression levels in SH-SY5Y cells upon AICAr treatment. Human neuroblastoma SH-SY5Y cells were treated with or without 1 mM AICAr for 48 hours. LRRK2 expression levels were analyzed by Western blot. FIGS. 2E and 2F depict the overexpressed (3-glucocerebrosidase (GCase) levels upon AICAr treatment. HEK 293T cells were transfected with V5-GCase and treated with or without 1 mM AICAr for 48 hours. GCase levels were analyzed by Western blot. FIGS. 2G-2N depict the LRRK2 expression levels in primary neurons (FIG. 2G and FIG. 2H), microglia (FIG. 2I and FIG. 2J), astrocytes (FIG. 2K and FIG. 2L) and human fibroblasts (FIG. 2M and FIG. 2N) upon AICAr treatment. Mouse primary cortical neurons, microglia, astrocytes or human fibroblasts from a health control were treated with or without 1 mM AICAr for 48 hours. LRRK2 expression levels were analyzed by Western blot. FIGS. 2O and 2P depict the overexpressed LRRK2 WT and pathogenic mutant levels upon AICAr treatment. HEK 293T cells were transfected with MYC-LRRK2 WT, R1441C (RC), R1441G (RG), Y1699C (YC), G2019S (GS) or I2020T (IT) and treated with or without 1 mM AICAr for 48 hours. LRRK2 expression levels were analyzed by Western blot. FIGS. 2Q and 2R depict the LRRK2 expression levels in mouse striatum upon AICAr treatment. AICAr (72 μg/day/animal) or saline (used as a control) was injected into mouse striatum via osmotic pumps. One day after injection, striatal tissues near the injection sites were collected and LRRK2 expression levels were analyzed by Western blot. Images were quantified by ImageJ software. Data are mean±SEM from total six mice (three male mice and three female mice). ****p<0.0001 by Student's t tests. […] FIG. 2T depicts the quantification of neuronal viability. Bars indicate the viability (n>100) for each transfection condition expressed as a percent of control neurons (eGFP with pcDNA3.1 empty vector). Data represent the mean±SEM from three independent experiments with n>100 cells quantified in each experiment. *p<0.05, ***p<0.001, ****p<0.0001 by one-way ANOVA followed by a Tukey's post hoc test.
FIGS. 3A-3J depict that AICAr regulates LRRK2 at mRNA level and through a specific region. […] LRRK2 expression levels were analyzed by Western blot. Images were quantified by ImageJ software. […] LRRK2 and GBA mRNA levels were analyzed by real-time PCR. […] LRRK2 mRNA levels were analyzed by real-time PCR. […]

[2] = system: LRRK2; assay: Endogenous LRRK2 levels in SH-SY5Y cells, Western blot; format: cell-based, human
[3] = system: LRRK2; assay: LRRK2 levels in mouse primary neurons, microglia, astrocytes, Western blot; format: cell-based; settings: 1 mM, 48 hours
Method: as §1, with “HEK 293T cells were transfected with MYC-LRRK2 WT, R1441C (RC), R1441G (RG), Y1699C (YC), G2019S (GS) or I2020T (IT) and treated with or without 1 mM AICAr for 48 hours.” left out, “FIGS. 2Q and 2R depict the LRRK2 expression levels in mouse striatum upon AICAr treatment. AICAr (72 μg/day/animal) or saline (used as a control) was injected into mouse striatum via osmotic pumps.” left out, “software.” for “software. Data are mean±SEM from total six mice (three male mice and three female mice). ****p<0.0001 by Student's t tests.”

[4] = system: GBA mRNA; assay: GBA mRNA levels by real-time PCR in SH-SY5Y cells; format: cell-based, human; settings: 2 mM, 24 hours
Method: Real-Time PCR (qPCR). SH-SY5Y WT or AUF1-KO cells were treated with or without 2 mM AICAr for 24 hours, and total RNA was extracted from 3×10^5 cells of each treatment using TRIzol™ Reagent (Invitrogen) as per the manufacturer's introductions. Real-Time PCR (qPCR) assay was performed using GoTaq® 2-Step RT-PCR System (Promega) as per the manufacturer's introductions. Briefly, total cDNA was reversely transcribed from RNA pools (1.5 μg RNA in a 10 μl reaction mixture) using random primers. The qPCR reaction was run in CFX96 qPCR detection system (Bio-Rad) with 3 μl cDNA (1:20 dilution) in a 10 μl reaction mixture (Table 3), and set at 95° C. for 2 minutes followed by 40 amplification cycles of 95° C. for 15 seconds, 60° C. for 1 min with a melting curve, 95° C. for 15 seconds, 60° C. for 1 min, a ramp from 60° C. to 95° C. at an 1% rate, and 95° C. for 15 seconds. Melt curves were monitored to assess qPCR amplicons, and critical threshold (Ct) values were collected with an enclosed software. Relative gene expression was analyzed by normalization against Ct values of f-ACTIN (housekeeping gene) and then determined by comparison with expression levels of control sample using the relative expression index (2-ΔΔCt) method.

NC(=O)c1ncn([C@@H]2O[C@H](CO)[C@@H](O)[C@H]2O)c1N [AICAr, 5-aminoimidazole-4-carboxamide riboside]
native LRRK2 cDNA expression ([1]; HEK 293T, Flag-LRRK2 native cDNA, 1 mM, 48 hours): great suppress | expression of synthesized LRRK2 cDNA with synonymous codons ([1]; HEK 293T, Flag-LRRK2 synthesized cDNA, 1 mM, 48 hours): no obvious effects | overexpressed LRRK2 levels ([1]; HEK293 cells transfected with MYC-LRRK2, 1 mM, 48 hours): decreased | chimeric LRRK2 cDNA expression ([1]; synthesized cDNA with region 2221-3927 bp replaced by native sequence): great suppression | LRRK2 level, time and dose course ([2]; 1 mM, 24h-48h treatment): suppressed LRRK2 level dramatically | LRRK2 protein levels in AUF1-KO cells ([2]; SH-SY5Y AUF1-KO cells, 1 mM, 48 hours): largely attenuated effects | AICAr effects on LRRK2 in AUF1 KO cells with stable AUF1-GFP expression ([2]; SH-SY5Y AUF1 KO, AUF1-GFP expressed back, 1 mM, 48 hours): significantly rescued AICAr effects | effects on LRRK2 protein levels in WT versus AMPK KO cell line ([2]; SH-SY5Y WT and AMPK KO, 1 mM, 48 hours): similar | endogenous LRRK2 levels ([2]; SH-SY5Y cells, 1 mM, 48 hours): decreased | LRRK2 protein levels despite MG132 or CQ ([2]; SH-SY5Y, 1 mM AICAr with 0.35 μM MG132 or 5 μM CQ, 48 hours): still largely reduced | LRRK2 levels in astrocytes ([3]; mouse primary astrocytes): remained unchanged | LRRK2 levels in neurons ([3]; mouse primary cortical neurons): significantly decrease | LRRK2 levels in microglia ([3]; mouse primary microglia): significantly decrease | GBA mRNA levels [4]: no changes
